In one data set the target is FlaI (Sulfolobus acidocaldarius, UniProt Q4J9L0, E336A). Kind of data set: size-exclusion chromatography and SAXS, hexamerization. In kind it is binding. The settings on record: SAXS: pH 7.0, 200 mM NaCl, 1 mM ATP, 2.5 mM MgCl2, 20 °C.
The data set “SAXS” deals with the molecule itself. Nature of the data set: SAXS.

Consider `Nc1ncnc2c1ncn2[C@@H]1O[C@H](COP(=O)(O)OP(=O)(O)OP(=O)(O)O)[C@@H](O)[C@H]1O` [ATP], for which the “size-exclusion chromatography and SAXS, hexamerization” value at FlaI is “FlaI^E336A with ATP clearly forms a hexameric ring similar to the one determined for GspE”.

B1: N-terminal His-tagged FlaI^E336A (Walker B mutant) (enzyme, S. acidocaldarius DSM639, UniProt Q4J9L0 1-513, looked up)
chain: MSFVEDYLTKLQERPTIIENPNILKGSKIFNAIYRVDDFVYIHIQSIKSEDGYNQYNVIEPPRPTHDEMEEIEEKFALSIGDKEPPEDTKEKEKLIRSILDKILLRMRLSVPKEYVIYHFIRDKLYTGSLEPLIRDPYIEDISIPGLGHVYIVHKVFGPMRTSIKFENYEELDNLIVSLSEKSYRPVSHNRPVVDASLPDGSRVNFVYGVDISRRGSNLTVRKFSRVPTSITQLIMFGTLSSMMAAYIWTMLDEGMNLFVCGETASGKTTTLNAITAFIPPNLKIVTIEDTPELTVPHSNWVAEVTRETGGEGTIKLFDLLKAALRQRPNYILVGAIRDKEGNVAFQAMQTGHSVMATFHAANITTLIQRLTGYPIEVPKSYINNLNIALFQTALYDKKGNLIRRVVEVDEIIDIDPVTNDVVYIPAFTYDSVQDKMLFAGKGSSYLIENKIAVKRGIDRRNIGLLYDELQMRSRFLNLLVEKKIFNYYDVWDYILRARQMGLEEAIKYVSNI
Consider B1, for which, in the data set “SAXS”, the “stoichiometry N” value is 6.
